From article PMC10441322 (bioRxiv, 2023)

How the values were obtained:
[1] = target: T1, Shaker voltage-gated potassium channel (Drosophila melanogaster, UniProt P08510); experiment: cut-open voltage clamp of Shaker in Xenopus oocytes, […] mV, pH […]; format: cell-based
CYP2E1 = CYP2E1 (Homo sapiens, UniProt P05181); experiment: Vivid CYP2E1 fluorogenic competitive inhibition assay, dose-response; format: biochemical
[2] = target: T1, Shaker voltage-gated potassium channel; experiment: cut-open voltage clamp of Shaker in Xenopus laevis oocytes, […] mV, pH […]; format: cell-based

T1 sequence (P08510 whole entry): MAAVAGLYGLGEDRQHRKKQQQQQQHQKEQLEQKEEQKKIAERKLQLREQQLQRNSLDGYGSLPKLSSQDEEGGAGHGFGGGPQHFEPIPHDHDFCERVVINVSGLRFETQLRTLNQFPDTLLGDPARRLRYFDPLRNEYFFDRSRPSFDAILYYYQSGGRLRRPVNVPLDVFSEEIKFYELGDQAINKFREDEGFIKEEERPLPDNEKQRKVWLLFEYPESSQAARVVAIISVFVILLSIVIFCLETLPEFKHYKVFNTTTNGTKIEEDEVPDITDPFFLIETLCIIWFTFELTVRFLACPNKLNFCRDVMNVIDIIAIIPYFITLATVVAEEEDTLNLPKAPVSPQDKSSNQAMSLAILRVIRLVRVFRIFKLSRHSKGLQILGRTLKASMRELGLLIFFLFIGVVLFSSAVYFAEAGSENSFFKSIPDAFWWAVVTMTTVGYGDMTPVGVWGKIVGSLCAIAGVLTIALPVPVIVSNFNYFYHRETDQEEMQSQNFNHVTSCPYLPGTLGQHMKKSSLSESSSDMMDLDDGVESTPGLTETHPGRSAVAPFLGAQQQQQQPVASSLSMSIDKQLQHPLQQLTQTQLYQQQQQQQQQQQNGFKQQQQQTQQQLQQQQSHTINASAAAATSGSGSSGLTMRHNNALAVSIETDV
Chain of CYP2E1 (P16435 2-677): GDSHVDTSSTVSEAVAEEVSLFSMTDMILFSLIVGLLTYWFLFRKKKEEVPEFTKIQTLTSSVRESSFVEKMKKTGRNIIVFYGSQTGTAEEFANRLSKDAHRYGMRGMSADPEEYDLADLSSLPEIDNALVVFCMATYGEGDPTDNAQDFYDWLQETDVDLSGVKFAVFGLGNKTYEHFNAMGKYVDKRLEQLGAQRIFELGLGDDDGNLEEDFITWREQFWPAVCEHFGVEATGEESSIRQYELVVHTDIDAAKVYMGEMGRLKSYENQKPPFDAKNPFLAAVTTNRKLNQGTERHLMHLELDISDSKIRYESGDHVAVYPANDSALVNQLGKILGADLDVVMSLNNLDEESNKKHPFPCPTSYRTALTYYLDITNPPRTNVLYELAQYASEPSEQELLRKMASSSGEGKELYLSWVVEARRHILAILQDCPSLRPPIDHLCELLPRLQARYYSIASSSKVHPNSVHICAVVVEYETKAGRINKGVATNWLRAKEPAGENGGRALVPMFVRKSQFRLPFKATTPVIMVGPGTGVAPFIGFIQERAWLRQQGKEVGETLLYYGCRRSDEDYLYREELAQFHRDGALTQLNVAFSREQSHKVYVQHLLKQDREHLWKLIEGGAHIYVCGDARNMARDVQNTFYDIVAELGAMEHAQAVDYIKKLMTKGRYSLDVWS
Chain of CYP2E1 (P05181 whole entry): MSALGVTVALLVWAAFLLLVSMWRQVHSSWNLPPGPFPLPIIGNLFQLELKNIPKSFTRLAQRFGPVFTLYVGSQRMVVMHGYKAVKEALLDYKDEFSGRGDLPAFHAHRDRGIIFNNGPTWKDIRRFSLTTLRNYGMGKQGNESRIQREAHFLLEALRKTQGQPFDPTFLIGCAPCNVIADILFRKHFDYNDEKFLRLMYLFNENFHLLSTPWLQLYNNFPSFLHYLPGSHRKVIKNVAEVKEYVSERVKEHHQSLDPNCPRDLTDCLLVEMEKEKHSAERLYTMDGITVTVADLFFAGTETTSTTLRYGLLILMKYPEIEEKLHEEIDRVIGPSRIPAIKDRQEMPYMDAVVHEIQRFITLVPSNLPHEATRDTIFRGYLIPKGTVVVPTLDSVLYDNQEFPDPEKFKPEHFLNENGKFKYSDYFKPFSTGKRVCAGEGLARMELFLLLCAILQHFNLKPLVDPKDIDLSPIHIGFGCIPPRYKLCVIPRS

| SMILES | IC50 [1] | IC50 (CYP2E1) | IC50 [2] |
| --- | --- | --- | --- |
| Nc1ccncc1F [3F4AP, 3-fluoro-4-aminopyridine] | 122 µM | 17 µM | – |
| Cc1cnccc1N [3Me4AP] | 66 µM | – | – |
| Cc1cncc(F)c1N [5Me3F4AP, 3-fluoro-5-methylpyridin-4-amine] | – | 35.9 µM | 301 µM |
